Data taken from US7521432B2, “Compositions and methods for identifying agents which regulate chromosomal stability, gene activation and aging” (priority 2000, dated 2009).

Legend:
[1] = system: Asterina miniata immature oocytes; assay: Microinjection into immature starfish oocytes, oocyte maturation (GVBD, polar body extrusion); type: cell-based; conditions: for effect on oocyte maturation as assessed by GVBD and polar body extrusion: microinjected, compared to control injections, text summary
Description: Asterina miniata gametes were collected and microinjections were performed as described previously (Carroll et al., 1999). Briefly, quantitative microinjection of Asterina miniata oocytes was performed at 16° C., using mercury-filled micropipets (Hiramoto, 1962; Kiehart, 1982; and see the information available at http://egg/uchc.edu/injection), allowing injection of precisely calibrated picoliter volumes into the oocytes and blastomeres. Injection volumes were 3% of the total cellular volume (for oocytes, 93 pL and for blastomeres, 47 pL). Buffer alone, purified O-acetylated ADP ribose or recombinant protein was injected into immature oocytes or one blastomere of a two cell stage embryo to a final concentration in the cytoplasm as indicated in the figure legends and Tables. 1-methyl adenine was from Sigma and was used at 10 μM.
Micro-injection assays were performed in starfish and sea urchin ooctyes. Historically echinoderm development has been a biochemically tractable and well-defined system to assess biological function of pruteins, bio-active compounds and for detailed analyses of the cell cycle. This system is attractive for its amenability to quantitative microinjection assays, cell cycle analyses, biochemical fractionation and microscopic imaging of eggs and early embryos. Initially, we hypothesized that if O-acetyl-ADP ribose produced by SIR2 was involved in SIR2's gene silencing ability, then micro-injection of O-acetyl-ADP ribose into a maturing oocyte should give rise to a phenotypic effect on the developing animal, perhaps through perturbations in normal gene expression patterns. Immature oocytes were micro-injected with HPLC-purified O-acetyl-ADP ribose or with a buffer control. The oocytes were allowed to mature by the addition of 1-methyladenine and assessed for developmental alterations.
Asterina miniata immature oocytes were microinjected with the amounts of O-acetyl ADP ribose in PBS. The maturation hormone 1-methyladenine was added (10 μM) 25-30 minutes post-injection. Oocytes were monitored for GVBD and polar body extrusion. […] The number of oocytes per treatment is given. Combined results of 3 separate experiments (3 batches of O-acetyl ADP ribose).
Asterina miniata immature oocytes were microinjected with the given enzymes in PBS. The maturation hormone 1-methyladenine was added (10 μM) 25-30 minutes post-injection. Oocytes were monitored for GVBD and polar body extrusion. […] The number of oocytes per treatment (n) is given. Data are from four separate batches of oocytes. All oocytes for a given treatment responded in the same way unless indicated otherwise (e.g. see 200 nM HST2 injection).

human HeLa cell extracts = assay: O-acetyl-ADP ribose utilization by enzymes from human HeLa cell extracts; type: in vitro ADME; conditions: HeLa cell extract vs buffer control, time points up to 3 hrs, HPLC
Description: P/CAF [^3H]-monoacetylation of H3 peptide. The histone acetyltransferase P/CAF was used to monoacetylate H3 peptide on Lysine 14 (12). P/CAF (0.175 μM) was mixed with [^3H]-acetyl CoA (33.3 μM, 1.88 Ci/mmol) and H3 peptide (175 μM) for 20 min at 25° C. prior to quenching with TFA to 1%. Mono [^3H]-acetylated H3 peptide was separated from unmodified H3 by HPLC analysis as described above. MALDI/ESI Mass Spectrometry Analyses. MALDI mass spectrometry was performed (Oregon State University, Environmental Health Sciences Center) on a custom-built reflector time-of-flight mass spectrometer equipped with a two-stage delayed extraction source. […] Every mass spectrum was recorded as the sum of 20 consecutive spectra, each produced by a single pulse of photons. […] The amount of [^3H]-AcLys14 H3 peptide and [^3H]-O-acetyl ADP ribose was determined by liquid scintillation counting of these species separated on reverse phase HPLC. […] Protein concentrations of supernatants were determined by the method of Bradford. […]
To provide evidence for the existence of human cellular proteins/enzymes that are capable of binding and catalyzing the conversion or decomposition of O-acetyl-ADP ribose, human HeLa cell extracts were generated and the ability of proteins within the extract to catalyze the decomposition of O-acetyl-ADP ribose was assessed. […]

[2] = 0.2 mg/ml (0.32 mM) in cytoplasm
[3] = 0.5 mg/ml (0.8 mM) in cytoplasm
[4] = 1.0 mg/ml (1.6 mM) in cytoplasm

## O-acetyl-ADP ribose
[1]; 0.01 mg/ml (0.016 mM) in cytoplasm
  no effect (oocytes): 8/8
[1]; 0.1 mg/ml (0.16 mM) in cytoplasm
  no effect (oocytes): 16/16
[1]; [2]
  compete block (oocytes): 1/8
  no effect (oocytes): 7/8
[1]; [3]
  1-2 hr delay (oocytes): 10/16
  compete block (oocytes): 6/16
[1]; [4]
  1-2 hr delay (oocytes): 1/23
  compete block (oocytes): 22/23
[1]; 1.7 mg/ml (3 mM) in cytoplasm
  compete block (oocytes): 6/6
[1]; 3.0 mg/ml (5 mM) in cytoplasm
  immediate death (oocytes): 1/3
[1]; 3.0 mg/ml (5 mM) in cytoplasm, 1-methyladenine 10 μM
  no effect (oocytes): 2/3
[1]; 10 mg/ml (16 mM) in cytoplasm
  immediate death (oocytes): 2/2
[1]; apoptosis normally occurs after ~24 hrs if not fertilized
  effect on apoptosis of unfertilized oocyte: delayed apoptosis
[1]; final 1 mg/mL, images 3 and 24 hr post hormone treatment, FIG. 9
  GV breakdown, polar body extrusion and apoptosis of injected oocytes: did not undergo GV breakdown or polar body extrusion, nor did they undergo apoptosis
[1]
  effect on oocyte maturation as assessed by GVBD and polar body extrusion: a delay in germinal vesicle breakdown (GVBD), or a complete block in oocyte maturation
[1]; listed as O-acetyl ADP ribose
  effect on oocyte maturation as assessed by GVBD and polar body extrusion: block oocyte maturation
[1]; oocyte maturation
  concentration below which no effect was observed (dose-dependency): below 0.32 mM
Human HeLa cell extracts
  conversion/consumption of O-acetyl-ADP ribose by cell extract: convert O-acetyl-ADP ribose to a distinct, but as yet unidentified species
Human HeLa cell extracts; listed as O-acetyl ADP ribose
  conversion/consumption of O-acetyl-ADP ribose by cell extract: capable of consuming O-acetyl ADP ribose
